Tested on: YAP/TAZ-TEAD transcription
Assay: Reporter gene assay for measuring the inhibition of YAP/TAZ-TEAD transcription (TEAD-responsive element luciferase reporter, Hek293T cells)
Assay type: cell-based
Conditions: Homo sapiens, HEK-293T, 24 h, Hek293T cells transfected with TEAD-responsive element luciferase reporter, 24 hours incubation
Method: Hek293T cells were cultured in DMEM supplemented with 10% fetal bovine serum, Sodium pyruvate, Sodium bicarbonate, L-glutamine. The cells were harvested and transiently transfected with TEAD-responsive element luciferase reporter. Transfected cells were plated in 384-well plate containing pre-diluted compounds. After 24 hours incubation at 37° C./5% CO2, assay plates were cooled to room temperature and levelled to an equal volume per well, prior to the addition of 25 uL luciferase substrate SteadyLite (Perkin Elmer)/well. The plate was shaken for 10 min at 600 rpm, centrifuged for 1 min at 500 rpm and measured with an Envision reader (PerkinElmer). The amount of relative light units produced by the TEAD reporter was used to calculate the percentage of inhibition.
The percent of reporter inhibition was calculated in the presence of a positive control inhibitor (100% inhibition) versus a condition with the presence of the vehicle basal activity of the reporter (0% inhibition). The ability of a test compound to inhibit this activity was determined as: Percentage inhibition=[1-((RLU determined in the presence of vehicle−RLU determined for sample with test compound present) divided by (RLU determined in the presence of vehicle−RLU determined for sample with positive control inhibitor))]*100.
The activities of example compounds tested are depicted in Table 3. The activity ranges A, B and C refer to IC50 values in the reporter gene assay as follows: “A”: IC50<1 μM; “B”: 1 μM≤IC50 10 μM and “C”: IC50>10 μM; NT=not tested.

Structure (SMILES) | IC50 [nM]
CS(=O)(=O)NCC1Cc2c(OCc3cc(=O)[nH]c(=O)[nH]3)cccc2N(c2ccc(C(F)(F)F)cc2)C1 (centres unmarked) [Cpd. No. 8, N-((5-((2,6-dioxo-1,2,3,6-tetrahydropyrimidin-4-yl)methoxy)-1-(4-(trifluoromethyl)phenyl)-1,2,3,4-tetrahydroquinolin-3-yl)methyl)methanesulfonamide] | 1000 to 10000
O=C(O)CC1Cc2ncccc2N(c2ccc(C(F)(F)F)cc2)C1 (centres unmarked) [Cpd. No. 13, 2-(1-(4-(trifluoromethyl)phenyl)-1,2,3,4-tetrahydro-1,5-naphthyridin-3-yl)acetic acid] | 1000 to 10000
CC(=O)NCC1Cc2c(ccc[n+]2[O-])N(c2ccc(C(F)(F)F)cc2)C1 (centres unmarked) [Cpd. No. 16, 7-(acetamidomethyl)-5-(4-(trifluoromethyl)phenyl)-5,6,7,8-tetrahydro-1,5-naphthyridine 1-oxide] | 1000 to 10000
COc1ccc2c(n1)CC(CNC(C)=O)CN2c1ccc(C(F)(F)F)cc1 (centres unmarked) [Cpd. No. 22, N-((6-methoxy-1-(4-(trifluoromethyl)phenyl)-1,2,3,4-tetrahydro-1,5-naphthyridin-3-yl)methyl)acetamide] | < 1000
CC(=O)NCC1Cc2nc(O)ccc2N(c2ccc(C(F)(F)F)cc2)C1 (centres unmarked) [Cpd. No. 23, N-((6-hydroxy-1-(4-(trifluoromethyl)phenyl)-1,2,3,4-tetrahydro-1,5-naphthyridin-3-yl)methyl)acetamide] | > 10000
O=C(O)COC1Cc2ncccc2N(c2ccc(C(F)(F)F)cc2)C1 (centres unmarked) [Cpd. No. 24, 2-((1-(4-(trifluoromethyl)phenyl)-1,2,3,4-tetrahydro-1,5-naphthyridin-3-yl)oxy)acetic acid] | > 10000

Now from value to compound:

IC50 [nM] | Structure (SMILES)
< 1000 | C=CC(=O)NCC1Cc2c(Oc3cccnc3)cccc2N(c2ccc(C(F)(F)F)cc2)C1 (centres unmarked) [Cpd. No. 3, N-((5-(pyridin-3-yloxy)-1-(4-(trifluoromethyl)phenyl)-1,2,3,4-tetrahydroquinolin-3-yl)methyl)acrylamide]
< 1000 | CCC(=O)NCC1Cc2c(OCc3cc(=O)[nH]c(=O)[nH]3)cccc2N(c2ccc(C(F)(F)F)cc2)C1 (centres unmarked) [Cpd. No. 5, N-((5-((2,6-dioxo-1,2,3,6-tetrahydropyrimidin-4-yl)methoxy)-1-(4-(trifluoromethyl)phenyl)-1,2,3,4-tetrahydroquinolin-3-yl)methyl)propionamide]
< 1000 | CS(=O)(=O)NCC1Cc2c(OCc3cc[nH]c(=O)c3)cccc2N(c2ccc(C(F)(F)F)cc2)C1 (centres unmarked) [Cpd. No. 9, N-((5-((2-oxo-1,2-dihydropyridin-4-yl)methoxy)-1-(4-(trifluoromethyl)phenyl)-1,2,3,4-tetrahydroquinolin-3-yl)methyl)methanesulfonamide]
< 1000 | CCC(=O)NCC1Cc2ncccc2N(c2ccc(C(F)(F)F)cc2)C1 (centres unmarked) [Cpd. No. 17, N-((1-(4-(trifluoromethyl)phenyl)-1,2,3,4-tetrahydro-1,5-naphthyridin-3-yl)methyl)propionamide]
< 1000 | O=C(NCC1Cc2ncccc2N(c2ccc(C(F)(F)F)cc2)C1)C1CC1 (centres unmarked) [Cpd. No. 18, N-((1-(4-(trifluoromethyl)phenyl)-1,2,3,4-tetrahydro-1,5-naphthyridin-3-yl)methyl)cyclopropanecarboxamide]
< 1000 | CNS(=O)(=O)NCC1Cc2ncccc2N(c2ccc(C(F)(F)F)cc2)C1 (centres unmarked) [Cpd. No. 19, N-(methylsulfamoyl)-1-[1-[4-(trifluoromethyl)phenyl]-3,4-dihydro-2H-1,5-naphthyridin-3-yl]methanamine]
< 1000 | O=C(O)/C=C/C1Cc2ncccc2N(c2ccc(C(F)(F)F)cc2)C1 (centres unmarked) [Cpd. No. 20, (E)-3-(1-(4-(trifluoromethyl)phenyl)-1,2,3,4-tetrahydro-1,5-naphthyridin-3-yl)acrylic acid]
< 1000 | C=CC(=O)NCC1Cc2nc(OC)ccc2N(c2ccc(C(F)(F)F)cc2)C1 (centres unmarked) [Cpd. No. 21, N-((6-methoxy-1-(4-(trifluoromethyl)phenyl)-1,2,3,4-tetrahydro-1,5-naphthyridin-3-yl)methyl)acrylamide]
